Laboratory results: patent US9210927B2, “Pesticidal compositions and processes related thereto” (Dow AgroSciences LLC, priority 2013, dated 2015)

Columns and labels:
BAW (Spodoptera exigua) = assay: Bioassays on Beet Armyworm (BAW), 128-well diet tray assay; format: in vivo; conditions: Spodoptera exigua, 168 h, read-out: BAW Rating
Protocol: (§1) Bioassays on Beet Armyworm (“BAW”) and Corn Earworm (“CEW”) and Cabbage Looper (“CL”)
(§2) Certain molecules disclosed in this document were tested against BAW and CEW and CL using procedures described in the following examples. In the reporting of the results, the “BAW & CEW & CL Rating Table” was used (See Table Section).
Bioassays on BAW (Spodoptera exigua)
Bioassays on BAW were conducted using a 128-well diet tray assay. one to five second instar BAW larvae were placed in each well (3 mL) of the diet tray that had been previously filled with 1 mL of artificial diet to which 50 μg/cm^2 of the test compound (dissolved in 50 μL of 90:10 acetone-water mixture) had been applied (to each of eight wells) and then allowed to dry. Trays were covered with a clear self-adhesive cover, and held at 25° C., 14:10 light-dark for five to seven days. Percent mortality was recorded for the larvae in each well; activity in the eight wells was then averaged. The results are indicated in the table entitled “Table 3: Assay Results” (See Table Section).

CEW (Helicoverpa zea) = assay: Bioassays on Corn Earworm (CEW), 128-well diet tray assay; format: in vivo; conditions: Helicoverpa zea, 168 h; percent mortality, second instar larvae, 50 μg/cm^2 on artificial diet, five to seven days, 25° C.; read-out: CEW Rating
Protocol: as §1, §2
Bioassays on CEW (Helicoverpa zea)
Bioassays on CEW were conducted using a 128-well diet tray assay. one to five second instar CEW larvae were placed in each well (3 mL) of the diet tray that had been previously filled with 1 mL of artificial diet to which 50 μg/cm^2 of the test compound (dissolved in 50 μL of 90:10 acetone-water mixture) had been applied (to each of eight wells) and then allowed to dry. Trays were covered with a clear self-adhesive cover, and held at 25° C., 14:10 light-dark for five to seven days. Percent mortality was recorded for the larvae in each well; activity in the eight wells was then averaged. The results are indicated in the table entitled “Table 3: Assay Results” (See Table Section).

Row | Compound | pest or weed control at 50 µg/cm2 (BAW (Spodoptera exigua)) [%] | pest or weed control at 50 µg/cm2 (CEW (Helicoverpa zea)) [%]
1 | O=C(CC(F)(F)F)NCc1ccc(/C=C/C(c2cc(Cl)cc(Cl)c2)C(F)(F)F)cc1 (centres unmarked) [CC3] | 50 to 100 | 50 to 100
2 | O=C(NCc1ccc(/C=C/C(c2cc(Cl)cc(Cl)c2)C(F)(F)F)cc1Cl)C1CC1 (centres unmarked) [CC8] | 50 to 100 | 50 to 100
3 | FC(F)(F)C(/C=C/c1ccc(CNC(=S)C2CC2)c(Cl)c1)c1cc(Cl)c(Cl)c(Cl)c1 (centres unmarked) [CC20] | 50 to 100 | 50 to 100
4 | O=C(NCc1ccc(/C=C/C(c2cc(Cl)cc(Cl)c2)C(F)(F)F)cc1C(F)(F)F)C1CC1 (centres unmarked) [CC21] | 50 to 100 | 50 to 100
5 | O=C(CC(F)(F)F)NCc1ccc(/C=C/C(c2cc(Cl)c(Cl)c(Cl)c2)C(F)(F)F)cc1C(F)(F)F (centres unmarked) [CC24] | 50 to 100 | 50 to 100
6 | O=C(CC(F)(F)F)NCc1ccc(/C=C/C(c2cc(Cl)c(Cl)c(Cl)c2)C(F)(F)F)cc1F (centres unmarked) [CC27] | 50 to 100 | 50 to 100
7 | O=C(NCc1ccc(/C=C/C(c2cc(Cl)c(Cl)c(Cl)c2)C(F)(F)F)cc1F)C1CC1 (centres unmarked) [CC28] | 50 to 100 | 50 to 100
8 | CS(=O)(=O)CCC(=O)NCc1ccc(/C=C/C(c2cc(Cl)c(Cl)c(Cl)c2)C(F)(F)F)cc1Cl (centres unmarked) [CC30, (E)-N-(2-Chloro-4-(4,4,4-trifluoro-3-(3,4,5-trichlorophenyl)but-1-en-1-yl)benzyl)-3-(methylsulfonyl)propanamide] | 50 to 100 | 50 to 100
9 | CN(C)C(=O)NCc1ccc(/C=C/C(c2cc(Cl)c(Cl)c(Cl)c2)C(F)(F)F)cc1Cl (centres unmarked) [CC36, (E)-3-(2-Chloro-4-(4,4,4-trifluoro-3-(3,4,5-trichlorophenyl)but-1-en-1-yl)benzyl)-1,1-dimethylurea] | 50 to 100 | 50 to 100
10 | CCNC(=S)NCc1ccc(/C=C/C(c2cc(Cl)c(Cl)c(Cl)c2)C(F)(F)F)cc1Cl (centres unmarked) [CC37, (E)-1-(2-Chloro-4-(4,4,4-trifluoro-3-(3,4,5-trichlorophenyl)but-1-en-1-yl)benzyl)-3-ethylthiourea] | 50 to 100 | 50 to 100
11 | C=CCNC(=S)NCc1ccc(/C=C/C(c2cc(Cl)c(Cl)c(Cl)c2)C(F)(F)F)cc1Cl (centres unmarked) [CC38] | 50 to 100 | 50 to 100
12 | O=C(NCc1ncc(/C=C/C(c2cc(Cl)c(Cl)c(Cl)c2)C(F)(F)F)cc1Cl)C1CC1 (centres unmarked) [CC45] | 50 to 100 | 50 to 100
13 | O=C(NNc1ccc(/C=C/C(c2cc(Cl)c(Cl)c(Cl)c2)C(F)(F)F)cc1)C1CC1 (centres unmarked) [CC50, (E)-N′-(4-(4,4,4-Trifluoro-3-(3,4,5-trichlorophenyl)but-1-en-1-yl)phenyl)cyclopropanecarbohydrazide] | 50 to 100 | 50 to 100
14 | O=C(CC(F)(F)F)NNc1ccc(/C=C/C(c2cc(Cl)c(Cl)c(Cl)c2)C(F)(F)F)cc1 (centres unmarked) [CC51] | 50 to 100 | 50 to 100
15 | O=C(CC(F)(F)F)NCc1ccc(/C=C\C(c2cc(Cl)c(Cl)c(Cl)c2)C(F)(F)F)cc1 (centres unmarked) [CC54, (Z)-3,3,3-Trifluoro-N-(4-(4,4,4-trifluoro-3-(3,4,5-trichlorophenyl)but-1-en-1-yl)benzyl)propanamide] | 50 to 100 | 50 to 100
16 | FC(F)(F)C(/C=C/c1ccc(-n2cncn2)cc1)c1cc(Cl)cc(Cl)c1 (centres unmarked) [DC1, (E)-1-(4-(3-(3,5-Dichlorophenyl)-4,4,4-trifluorobut-1-en-1-yl)phenyl)-1H-1,2,4-triazole] | 50 to 100 | 50 to 100
17 | FC(F)(F)c1cc(C(/C=C/c2ccc(-n3cncn3)cc2)C(F)(F)F)cc(C(F)(F)F)c1 (centres unmarked) [DC16] | 50 to 100 | 50 to 100
18 | N#Cc1cc(/C=C/C(c2cc(Cl)cc(C(F)(F)F)c2)C(F)(F)F)ccc1-n1cncn1 (centres unmarked) [DC33] | 50 to 100 | 50 to 100
19 | N#Cc1cc(/C=C/C(c2cc(Cl)cc(Cl)c2)C(F)(F)F)ccc1-n1cnc([N+](=O)[O-])n1 (centres unmarked) [DC37] | 50 to 100 | 50 to 100
20 | N#Cc1cc(/C=C/C(c2cc(Cl)cc(Cl)c2)C(F)(F)F)ccc1-n1cnc(N)n1 (centres unmarked) [DC38] | 50 to 100 | 50 to 100

Row | Compound | pest or weed control at 50 µg/cm2 (BAW (Spodoptera exigua)) [%] | pest or weed control at 50 µg/cm2 (CEW (Helicoverpa zea)) [%]
21 | CC(=O)Nc1ncn(-c2ccc(/C=C/C(c3cc(Cl)cc(Cl)c3)C(F)(F)F)cc2C#N)n1 (centres unmarked) [DC39] | 50 to 100 | 50 to 100
22 | N#Cc1cc(/C=C/C(c2cc(Cl)c(Cl)c(Cl)c2)C(F)(F)F)ccc1-n1cnc([N+](=O)[O-])n1 (centres unmarked) [DC40, (E)-2-(3-Nitro-1H-1,2,4-triazol-1-yl)-5-(4,4,4-trifluoro-3-(3,4,5-trichlorophenyl)but-1-en-1-yl)benzonitrile] | 50 to 100 | 50 to 100
23 | N#Cc1cc(/C=C/C(c2cc(Cl)c(Cl)c(Cl)c2)C(F)(F)F)ccc1-n1cnc(N)n1 (centres unmarked) [DC41, (E)-2-(3-Amino-1H-1,2,4-triazol-1-yl)-5-(4,4,4-trifluoro-3-(3,4,5-trichlorophenyl)but-1-en-1-yl)benzonitrile] | 50 to 100 | 50 to 100
24 | N#Cc1cc(/C=C/C(c2cc(Cl)c(Cl)c(Cl)c2)C(F)(F)F)ccc1-n1cnc(N(C(=O)C2CC2)C(=O)C2CC2)n1 (centres unmarked) [DC42, (E)-N-(1-(2-Cyano-4-(4,4,4-trifluoro-3-(3,4,5-trichlorophenyl)but-1-en-1-yl)phenyl)-1H-1,2,4-triazol-3-yl)-N-(cyclopropanecarbonyl)cyclopropanecarboxamide] | 50 to 100 | 50 to 100
25 | N#Cc1cc(/C=C/C(c2cc(Cl)c(Cl)c(Cl)c2)C(F)(F)F)ccc1-n1cnc(NC(=O)C2CC2)n1 (centres unmarked) [DC43, (E)-N-(1-(2-Cyano-4-(4,4,4-trifluoro-3-(3,4,5-trichlorophenyl)but-1-en-1-yl)phenyl)-1H-1,2,4-triazol-3-yl)cyclopropanecarboxamide] | 50 to 100 | 50 to 100
26 | Cc1cc(/C=C/C(c2cc(Cl)cc(Cl)c2)C(F)(F)F)cc(C#N)c1-n1cncn1 (centres unmarked) [DC44] | 50 to 100 | 50 to 100
27 | Cc1cc(/C=C/C(c2cc(Cl)c(Cl)c(Cl)c2)C(F)(F)F)cc(C#N)c1-n1cncn1 (centres unmarked) [DC45] | 50 to 100 | 50 to 100
28 | N#Cc1cc(/C=C\C(c2cc(Cl)c(F)c(Cl)c2)C(F)(F)F)ccc1-n1cncn1 (centres unmarked) [DC46] | 50 to 100 | 50 to 100
29 | FC(F)(F)C(/C=C/c1ccc(-n2cncn2)c(Br)c1)c1cc(Cl)cc(Cl)c1 (centres unmarked) [DC47] | 50 to 100 | 50 to 100
30 | Fc1cc(/C=C/C(c2cc(Cl)cc(Cl)c2)C(F)(F)F)ccc1-n1cncn1 (centres unmarked) [DC48] | 50 to 100 | 50 to 100
31 | FC(F)(F)C(/C=C/c1ccc(-n2cncn2)c(Cl)c1)c1cc(Cl)c(Cl)c(Cl)c1 (centres unmarked) [DC49] | 50 to 100 | 50 to 100
32 | FC(F)(F)C(/C=C/c1ccc(-n2cncn2)c(Cl)c1)c1cc(Cl)cc(Cl)c1 (centres unmarked) [DC50] | 50 to 100 | 50 to 100
33 | FC(F)(F)c1cc(/C=C/C(c2cc(Cl)cc(Cl)c2)C(F)(F)F)ccc1-n1cncn1 (centres unmarked) [DC51] | 50 to 100 | 50 to 100
34 | CNc1cc(/C=C/C(c2cc(Cl)cc(Cl)c2)C(F)(F)F)ccc1-n1cncn1 (centres unmarked) [DC57, (E)-5-(3-(3,5-Dichlorophenyl)-4,4,4-trifluorobut-1-en-1-yl)-N-methyl-2-(1H-1,2,4-triazol-1-yl)aniline] | 50 to 100 | 50 to 100
35 | CCOC(=O)c1cc(/C=C/C(c2cc(Cl)cc(Cl)c2)C(F)(F)F)ccc1-n1cncn1 (centres unmarked) [DC60] | 50 to 100 | 50 to 100
36 | Cc1cc(/C=C/C(c2cc(Cl)cc(Cl)c2)C(F)(F)F)ccc1-n1cncn1 (centres unmarked) [DC62] | 50 to 100 | 50 to 100
37 | Cc1cc(/C=C/C(c2cc(Cl)c(Cl)c(Cl)c2)C(F)(F)F)ccc1-n1cncn1 (centres unmarked) [DC63] | 50 to 100 | 50 to 100
38 | FC(F)(F)C(/C=C/c1ccc(-n2cncn2)cc1Cl)c1cc(Cl)c(Cl)c(Cl)c1 (centres unmarked) [DC66] | 50 to 100 | 50 to 100
39 | FC(F)(F)C(/C=C/c1ccc(-n2cncn2)cc1Cl)c1cc(Cl)cc(Cl)c1 (centres unmarked) [DC67] | 50 to 100 | 50 to 100
40 | C/C(=C\C(c1cc(Cl)cc(Cl)c1)C(F)(F)F)c1ccc(-n2cncn2)cc1 (centres unmarked) [DC68, (E)-1-(4-(4-(3,5-Dichlorophenyl)-5,5,5-trifluoropent-2-en-2-yl)phenyl)-1H-1,2,4-triazole] | 50 to 100 | 50 to 100
